Experimental data reported in patent US20060122147A1, “Combination preparation of hyaluronic acid and at least oe local anesthetic and the use thereof” (priority 2002, published 2006).
Read-outs that look alike come from different tables or passages of the source.

Conditions: 37° C., diffusion time 4 h, lidocaine 0.05% (hya 0.25% where present) in donor compartment

CCN(CC)CC(=O)Nc1c(C)cccc1C [lidocaine]
Flux (pH 3.1): 0.32 mg h^−1 cm^−2 | Flux (pH 6.0): 0.355 mg h^−1 cm^−2 | Flux (pH 6.5): 0.315 mg h^−1 cm^−2 | Flux (pH 6.9): 0.42 mg h^−1 cm^−2 | Flux (pH 7.7): 0.35 mg h^−1 cm^−2 | Flux (pH 9.0): 0.09 mg h^−1 cm^−2
